Measured values reported in patent publication US4331606A, “N-(Substituted chromone-3-carbonyl)-phenylglycine derivatives” (Eisai Co., Ltd., priority 1980, dated 1982).
Converted amounts (≈) assume the structure as drawn.

Legend:
Assay type in all cases: cell-based
Proteus morganii EP-14 = assay: Antibacterial Activity (MIC) against Proteus morganii EP-14; conditions: Morganella morganii, EP14
Escherichia coli NIHJ = assay: Antibacterial Activity (MIC) against Escherichia coli NIHJ
[1] = system: Pseudomonas aeruginosa EP-172; assay: Antibacterial Activity (MIC) against Pseudomonas aeruginosa EP-172; conditions: EP172
[2] = system: Staphylococcus aureus 209-P; assay: Antibacterial Activity (MIC) against Staphylococcus aureus 209-P
[3] = system: Serratia marcescens ES-75; assay: Antibacterial Activity (MIC) against Serratia marcescens ES-75; conditions: ES75
[4] = system: Klebsiella pneumoniae EK-6; assay: Antibacterial Activity (MIC) against Klebsiella pneumoniae EK-6; conditions: EK6

Structure (SMILES) | MIC (Proteus morganii EP-14) | MIC (Escherichia coli NIHJ) | MIC [1] | MIC [2] | MIC [3] | MIC [4]
O=C(O)Cn1nnnc1SCC1=C(C(=O)O)N2C(=O)[C@@H](NC(=O)[C@H](NC(=O)c3coc4cc(O)c(O)cc4c3=O)c3ccc(O)cc3)[C@H]2SC1 [Preparatory Example 2 (B), 7β-[D-2-(6,7-Dihydroxychromone-3-carboxyamido)-2-(4-hydroxyphenyl)acetamido]-3-[(1-carboxymethyl-5-tetrazolyl)thiomethyl]-cephem-4-carboxylic acid] | 12.5 µg/mL (≈ 17.2 µM) | 0.4 µg/mL (≈ 0.551 µM) | 0.8 µg/mL (≈ 1.1 µM) | 3.13 µg/mL (≈ 4.31 µM) | ≥ 0.1 µg/mL | ≥ 0.1 µg/mL
CCOC(=O)Oc1cc2occ(C(=O)N[C@@H](C(=O)N[C@@H]3C(=O)N4C(C(=O)O)=C(CSc5nnnn5CC(=O)O)CS[C@H]34)c3ccc(O)cc3)c(=O)c2cc1OC(=O)OCC [Preparatory Example 2 (A), 7β-[D-2-{6,7-bis(ethoxycarbonyloxy)chromone-3-carboxamido}-2-(4-hydroxyphenyl)acetamido]-3-[(1-carboxymethyl-5-tetrazolyl)thiomethyl]-3-cephem-4-carboxylic acid] | 1.56 µg/mL (≈ 1.79 µM) | 0.4 µg/mL (≈ 0.46 µM) | 0.8 µg/mL (≈ 0.92 µM) | 6.25 µg/mL (≈ 7.19 µM) | ≥ 0.05 µg/mL | ≥ 0.05 µg/mL
